Molecular target: Sodium-dependent dopamine transporter (Rattus norvegicus, UniProt P23977)
Assay: Radioligand Binding Assay
Procedure: The assay was initiated by the addition of membranes to binding buffer containing test compound, blocker, and radioligand. The samples were incubated in triplicate. Brandel cell harvesters were used to filter the samples over Whatman GF/B filters, which were presoaked in wash buffer. The 125I retained on the filters was measured in a gamma counter.

Chain of Sodium-dependent dopamine transporter (P23977 whole entry): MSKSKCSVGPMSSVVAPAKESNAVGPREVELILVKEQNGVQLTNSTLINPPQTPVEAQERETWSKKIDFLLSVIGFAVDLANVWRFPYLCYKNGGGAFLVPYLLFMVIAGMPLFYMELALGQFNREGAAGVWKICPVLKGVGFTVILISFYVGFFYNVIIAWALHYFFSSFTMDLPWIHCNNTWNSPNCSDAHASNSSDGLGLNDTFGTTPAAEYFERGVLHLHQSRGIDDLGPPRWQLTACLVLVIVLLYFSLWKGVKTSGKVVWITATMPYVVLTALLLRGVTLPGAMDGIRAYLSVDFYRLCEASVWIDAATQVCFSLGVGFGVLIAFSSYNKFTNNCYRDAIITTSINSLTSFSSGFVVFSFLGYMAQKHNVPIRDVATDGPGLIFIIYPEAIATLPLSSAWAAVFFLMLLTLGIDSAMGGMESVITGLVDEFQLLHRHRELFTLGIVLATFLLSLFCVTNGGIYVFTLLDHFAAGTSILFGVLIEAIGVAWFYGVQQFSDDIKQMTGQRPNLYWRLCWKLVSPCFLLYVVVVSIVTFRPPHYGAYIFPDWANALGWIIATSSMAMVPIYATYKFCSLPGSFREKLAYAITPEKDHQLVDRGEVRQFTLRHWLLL

Compound	Ki	Ki (pH 7.4, 4 °C)
C=C(Cc1ccccc1)CN1CCN(CCOC(c2ccccc2)c2ccccc2)CC1 [1-(2-benzylprop-2-en-1-yl)-4-[2-(diphenylmethoxy)ethyl]piperazine]	410 nM	
C=C(Cc1ccccc1)CN1CCN(CCOC(c2ccc(F)cc2)c2ccc(F)cc2)CC1 [1-(2-benzylprop-2-en-1-yl)-4-{2-[bis(4-fluorophenyl)methoxy]ethyl}piperazine]	100 nM	
CC(O)(Cc1ccccc1)CN1CCN(CCOC(c2ccc(F)cc2)c2ccc(F)cc2)CC1 (configuration not stated) [1-(4-{2-[bis(4-fluorophenyl)methoxy]ethyl}piperazin-1-yl)-2-methyl-3-phenylpropan-2-ol]	57 nM	
O=C(Cc1ccccc1)CN1CCN(CCOC(c2ccc(F)cc2)c2ccc(F)cc2)CC1 [1-(4-{2-[bis(4-fluorophenyl)methoxy]ethyl}piperazin-1-yl)-3-phenylpropan-2-one]	6.5 nM	
C=C(CCN1CCN(CCOC(c2ccccc2)c2ccccc2)CC1)c1ccccc1 [1-[2-(diphenylmethoxy)ethyl]-4-(3-phenylbut-3-en-1-yl)piperazine]		30 nM
C[C@H](Cc1ccccc1)CN1CCN(CCOC(c2ccc(F)cc2)c2ccc(F)cc2)CC1 [1-[(2R)-2-benzylpropyl]-4-{2-[bis(4-fluorophenyl)methoxy]ethyl}piperazine]		17 nM
C[C@@H](Cc1ccccc1)CN1CCN(CCOC(c2ccc(F)cc2)c2ccc(F)cc2)CC1 [1-[(2S)-2-benzylpropyl]-4-{2-[bis(4-fluorophenyl)methoxy]ethyl}piperazine]		17 nM
C=C(CCN1CCN(CCOC(c2ccc(F)cc2)c2ccc(F)cc2)CC1)c1ccccc1 [1-{2-[bis(4-fluorophenyl)methoxy]ethyl}-4-(3-phenylbut-3-en-1-yl)piperazine]		18 nM
FC[C@@H](Cc1ccccc1)N1CCN(CCOC(c2ccc(F)cc2)c2ccc(F)cc2)CC1 [1-{2-[bis(4-fluorophenyl)methoxy]ethyl}-4-[(2R)-1-fluoro-3-phenylpropan-2-yl]piperazine]	110 nM	
Fc1ccc(C(OCCN2CCN(C[C@H](F)Cc3ccccc3)CC2)c2ccc(F)cc2)cc1 [1-{2-[bis(4-fluorophenyl)methoxy]ethyl}-4-[(2R)-2-fluoro-3-phenylpropyl]piperazine]		22 nM
CO[C@H](Cc1ccccc1)CN1CCN(CCOC(c2ccc(F)cc2)c2ccc(F)cc2)CC1 [1-{2-[bis(4-fluorophenyl)methoxy]ethyl}-4-[(2R)-2-methoxy-3-phenylpropyl]piperazine]		27 nM
FC[C@H](Cc1ccccc1)N1CCN(CCOC(c2ccc(F)cc2)c2ccc(F)cc2)CC1 [1-{2-[bis(4-fluorophenyl)methoxy]ethyl}-4-[(2S)-1-fluoro-3-phenylpropan-2-yl]piperazine]	140 nM	
Fc1ccc(C(OCCN2CCN(C[C@@H](F)Cc3ccccc3)CC2)c2ccc(F)cc2)cc1 [1-{2-[bis(4-fluorophenyl)methoxy]ethyl}-4-[(2S)-2-fluoro-3-phenylpropyl]piperazine]		2.7 nM
CO[C@@H](Cc1ccccc1)CN1CCN(CCOC(c2ccc(F)cc2)c2ccc(F)cc2)CC1 [1-{2-[bis(4-fluorophenyl)methoxy]ethyl}-4-[(2S)-2-methoxy-3-phenylpropyl]piperazine]		29 nM
CC(O)(Cc1ccccc1)CN1CCN(CCOC(c2ccccc2)c2ccccc2)CC1 (configuration not stated) [1-{4-[2-(diphenylmethoxy)ethyl]piperazin-1-yl}-2-methyl-3-phenylpropan-2-ol]	150 nM	
O=C(Cc1ccccc1)CN1CCN(CCOC(c2ccccc2)c2ccccc2)CC1 [1-{4-[2-(diphenylmethoxy)ethyl]piperazin-1-yl}-3-phenylpropan-2-one]	10 nM	
O=C(CN1CCN(CCOC(c2ccc(F)cc2)c2ccc(F)cc2)CC1)c1ccccc1 [2-(4-{2-[bis(4-fluorophenyl)methoxy]ethyl}piperazin-1-yl)-1-phenylethan-1-one]	54 nM	
O=C(CN1CCN(CCOC(c2ccccc2)c2ccccc2)CC1)c1ccccc1 [2-{4-[2-(diphenylmethoxy)ethyl]piperazin-1-yl}-1-phenylethan-1-one]	450 nM	
CC(O)(CCN1CCN(CCOC(c2ccc(F)cc2)c2ccc(F)cc2)CC1)c1ccccc1 (configuration not stated) [4-(4-{2-[bis(4-fluorophenyl)methoxy]ethyl}piperazin-1-yl)-2-phenylbutan-2-ol]		4 nM
CC(O)(CCN1CCN(CCOC(c2ccccc2)c2ccccc2)CC1)c1ccccc1 (configuration not stated) [4-{4-[2-(diphenylmethoxy)ethyl]piperazin-1-yl}-2-phenylbutan-2-ol]		7 nM
N[C@H](Cc1ccccc1)CN1CCN(CCOC(c2ccc(F)cc2)c2ccc(F)cc2)CC1 [(2R)-1-(4-{2-[bis(4-fluorophenyl)methoxy]ethyl}piperazin-1-yl)-3-phenylpropan-2-amine]		20 nM
N[C@@H](Cc1ccccc1)CN1CCN(CCOC(c2ccc(F)cc2)c2ccc(F)cc2)CC1 [(2S)-1-(4-{2-[bis(4-fluorophenyl)methoxy]ethyl}piperazin-1-yl)-3-phenylpropan-2-amine]		39 nM

Reference: BindingDB's records for doi:10.1021/jm701270n (National Taiwan University, 2008)
